Earlier results on three molecules are cited in patent US20030216431A1, “Ophthalmic pharmaceutical compositions and methods for treating ocular inflammation” (priority 2002, published 2003).

Bounds are passed on as bounds.

For this series the following is noted: for daily dosage causing serious retinopathy: systemic use in patients, nearly all instances.

On to `CCN(CC)CCCC(C)Nc1ccnc2cc(Cl)ccc12` (stereo not shown) [chloroquine diphosphate, Quinoline, 7-chloro-4-((4-(diethylamino)-1-methylbutyl)amino)-, diphosphate], for which the “daily dosage causing serious retinopathy” value is listed as “more than 250 mg per day”. For the same molecule, for the setting “dosage slightly greater than 250 mg chloroquine diphosphate per day”, the “time to onset of definite retinopathy” value is on record as “one to three”.

In the case of `CCN(CC)CCCC(C)Nc1ccnc2cc(Cl)ccc12.O=S(=O)(O)O` (stereo not shown) [chloroquine sulfate, Quinoline, 7-chloro-4-((4-(diethylamino)-1-methylbutyl)amino)-, sulfate], the “daily dosage causing serious retinopathy” value is reported as over 200 mg per day.

For `CCN(CC)CCCC(C)Nc1ccnc2cc(Cl)ccc12` (stereo not shown) [chloroquine, Chloroquine], the “duration of intake without clinically evident retinopathy” value (not exceeding 250 mg diphosphate or 200 mg sulfate per day) was “nine”.
